Data reported in US20140303164A1, “THERAPEUTIC COMPOUNDS” (Gilead Sciences, Inc., priority 2013, published 2014).

Columns and labels:
HIV-IIIb = assay: Test A: Antiviral Assay in MT4 Cells; assay type: cell-based, HIV-1; settings: Human immunodeficiency virus 1, IIIB, MT4, 120 h; for inhibition at 0.2 µM: read-out: % inhibition at 0.2 μM; for inhibition at 2 µM: read-out: % inhibition at 2 μM
Method: Test A: Antiviral Assay in MT4 Cells
MT-4 cells were next mixed with HIV-IIIb at an m.o.i of 0.003 for 1 hour, after which time 35 μL of virus/cell mixture (2000 cells) was immediately added to each well containing 40 μL of diluted compound. The plates were then incubated at 37° C. for 5 days. […] Cell lysis was carried out by incubating at room temperature for 10 min and then chemiluminescence was read.

[1] = Test B: Cytotoxicity Assay; assay type: cell-based; settings: human, uninfected MT-4 cells, same protocol as Test A
Summary of the method: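 Uninfected MT-4 cells (2000 per well) incubated with diluted compound at 37° C. for 5 days, following the antiviral protocol without HIV-IIIb.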

SMILES	inhibition at 0.2 µM (HIV-IIIb) [%]	inhibition at 2 µM (HIV-IIIb) [%]	CC50 at 5 days [1] [µM]
CC(C)(O)C#Cc1ccc(-c2cccc3[nH]ncc23)c([C@H](Cc2cc(F)cc(F)c2)NC(=O)Cn2nc(C(F)(F)F)c3c2C(F)(F)[C@@H]2C[C@H]32)n1 [Compound 72, 2-((3bS,4aR)-5,5-difluoro-3-(trifluoromethyl)-3b,4,4a,5-tetrahydro-1H-cyclopropa[3,4]cyclopenta[1,2-c]pyrazol-1-yl)-N—((S)-2-(3,5-difluorophenyl)-1-(6-(3-hydroxy-3-methylbut-1-yn-1-yl)-3-(1H-indazol-4-yl)pyridin-2-yl)ethyl)acetamide]	85	87	5.87
CC(C)(O)C#Cc1ccc(-c2cccc3c(N)nccc23)c([C@H](Cc2cc(F)cc(F)c2)NC(=O)Cn2nc(C(F)(F)F)c3c2C(F)(F)[C@@H]2C[C@H]32)n1 [Compound 73, N—((S)-1-(3-(1-aminoisoquinolin-5-yl)-6-(3-hydroxy-3-methylbut-1-yn-1-yl)pyridin-2-yl)-2-(3,5-difluorophenyl)ethyl)-2-((3b-S,4aR)-5,5-difluoro-3-(trifluoromethyl)-3b,4,4a,5-tetrahydro-1H-cyclopropa[3,4]cyclopenta[1,2-c]pyrazol-1-yl)acetamide]	86	86	4.49
Cn1nc(NCC(F)F)c2cccc(-c3ccc(C#CC(C)(C)O)nc3[C@H](Cc3cc(F)cc(F)c3)NC(=O)Cn3nc(C(F)F)c4c3C(F)(F)[C@@H]3C[C@H]43)c21 [Compound 74D, N—((S)-1-(3-(3-((2,2-difluoroethyl)amino)-1-methyl-1H-indazol-7-yl)-6-(3-hydroxy-3-methylbut-1-yn-1-yl)pyridin-2-yl)-2-(3,5-difluorophenyl)ethyl)-2-((3b-S,4aR)-3-(difluoromethyl)-5,5-difluoro-3b,4,4a,5-tetrahydro-1H-cyclopropa[3,4]cyclopenta[1,2-c]pyrazol-1-yl)acetamide]	99	99	6.91
CNc1nnc2c(-c3ccc(C#CC(C)(C)O)nc3[C@H](Cc3cc(F)cc(F)c3)NC(=O)Cn3nc(C(F)F)c4c3C(F)(F)[C@@H]3C[C@H]43)cccn12 [Compound 76F, 2-((3bS,4aR)-3-(difluoromethyl)-5,5-difluoro-3b,4,4a,5-tetrahydro-1H-cyclopropa[3,4]cyclopenta[1,2-c]pyrazol-1-yl)-N—((S)-2-(3,5-difluorophenyl)-1-(6-(3-hydroxy-3-methylbut-1-yn-1-yl)-3-(3-(methylamino)-[1,2,4]triazolo[4,3-a]pyridin-8-yl)pyridin-2-yl)ethyl)acetamide]	98	98	22.6
Cn1nc(N)c2c(C#N)ccc(-c3ccc(C#CC(C)(C)O)nc3[C@H](Cc3cc(F)cc(F)c3)NC(=O)Cn3nc(C(F)F)c4c3C(F)(F)[C@@H]3C[C@H]43)c21 [Compound 77E, N—((S)-1-(3-(3-amino-4-cyano-1-methyl-1H-indazol-7-yl)-6-(3-hydroxy-3-methylbut-1-yn-1-yl)pyridin-2-yl)-2-(3,5-difluorophenyl)ethyl)-2-((3b-S,4aR)-3-(difluoromethyl)-5,5-difluoro-3b,4,4a,5-tetrahydro-1H-cyclopropa[3,4]cyclopenta[1,2-c]pyrazol-1-yl)acetamide]	96	97	11.8
Cc1n[nH]c2cccc(-c3ccc(C#CC(C)(C)O)nc3[C@H](Cc3cc(F)cc(F)c3)NC(=O)Cn3nc(C(F)(F)F)c4c3C(F)(F)[C@@H]3C[C@H]43)c12 [Compound 79, 2-((3bS,4aR)-5,5-difluoro-3-(trifluoromethyl)-3b,4,4a,5-tetrahydro-1H-cyclopropa[3,4]cyclopenta[1,2-c]pyrazol-1-yl)-N—((S)-2-(3,5-difluorophenyl)-1-(6-(3-hydroxy-3-methylbut-1-yn-1-yl)-3-(3-methyl-1H-indazol-4-yl)pyridin-2-yl)ethyl)acetamide]	100	100	4.72
CC(C)(O)C#Cc1ccc(-c2ccc(Cl)c(C(N)=O)c2)c([C@H](Cc2cc(F)cc(F)c2)NC(=O)Cn2nc(C(F)(F)F)c3c2C(F)(F)[C@@H]2C[C@H]32)n1 [Compound 80, 2-chloro-5-(2-((S)-1-(2-((3bS,4aR)-5,5-difluoro-3-(trifluoromethyl)-3b,4,4a,5-tetrahydro-1H-cyclopropa[3,4]cyclopenta[1,2-c]pyrazol-1-yl)acetamido)-2-(3,5-difluorophenyl)ethyl)-6-(3-hydroxy-3-methylbut-1-yn-1-yl)pyridin-3-yl)benzamide]	96	100	8.58
CNc1nn(C)c2c(-c3ccc(C#CC(C)(C)O)nc3[C@H](Cc3cc(F)cc(F)c3)NC(=O)Cn3nc(C(F)F)c4c3C(F)(F)[C@@H]3C[C@H]43)ccc(Cl)c12 [Compound 81, N—((S)-1-(3-(4-chloro-1-methyl-3-(methylamino)-1H-indazol-7-yl)-6-(3-hydroxy-3-methylbut-1-yn-1-yl)pyridin-2-yl)-2-(3,5-difluorophenyl)ethyl)-2-((3bS,4aR)-3-(difluoromethyl)-5,5-difluoro-3b,4,4a,5-tetrahydro-1H-cyclopropa[3,4]cyclopenta[1,2-c]pyrazol-1-yl)acetamide]	100	100	12.5
Cn1nc(NS(C)(=O)=O)c2c(Cl)ccc(-c3ccc(C#CC(C)(C)O)nc3[C@H](Cc3cc(F)cc(F)c3)NC(=O)Cn3nc(C(F)F)c4c3C(F)(F)CCC4(F)F)c21 [Compound 82, (S)—N-(1-(3-(4 chloro-1-methyl-3-(methylsulfonamido)-1H-indazol-7-yl)-6-(3-hydroxy-3-methylbut-1-yn-1-yl)pyridin-2-yl)-2-(3,5-difluorophenyl)ethyl)-2-(3-(difluoromethyl)-4,4,7,7-tetrafluoro-4,5,6,7-tetrahydro-1H-indazol-1-yl)acetamide]	99	99	9.7
Cn1nc(NS(C)(=O)=O)c2c(Cl)ccc(-c3ccc(C#CC(C)(C)O)nc3[C@H](Cc3cc(F)cc(F)c3)NC(=O)Cn3nc(C(F)F)c4c3C3CC3CC4)c21 (stereo partly drawn) [Compound 83, N—((S)-1-(3-(4-chloro-1-methyl-3-(methylsulfonamido)-1H-indazol-7-yl)-6-(3-hydroxy-3-methylbut-1-yn-1-yl)pyridin-2-yl)-2-(3,5-difluorophenyl)ethyl)-2-(3-(difluoromethyl)-5,5a,6,6a-tetrahydrocyclopropa[g]indazol-1(4H)-yl)acetamide]	94	94	9.94
COCC(=O)Nc1nn(C)c2c(-c3ccc(C#CC(C)(C)O)nc3[C@H](Cc3cc(F)cc(F)c3)NC(=O)Cn3nc(C(F)F)c4c3C(F)(F)[C@@H]3C[C@H]43)ccc(Cl)c12 [Compound 84, N—((S)-1-(3-(4-chloro-3-(2-methoxyacetamido)-1-methyl-1H-indazol-7-yl)-6-(3-hydroxy-3-methylbut-1-yn-1-yl)pyridin-2-yl)-2-(3,5-difluorophenyl)ethyl)-2-((3b-S,4aR)-3-(difluoromethyl)-5,5-difluoro-3b,4,4a,5-tetrahydro-1H-cyclopropa[3,4]cyclopenta[1,2-c]pyrazol-1-yl)acetamide]	100	100	8.73
